Holding throughout (type): in vivo, rat
The test system of assay [1] is rats. Nature of the assay: Phase III: dose response to (S)-amlodipine malate in absence and presence of an ARB (co-administration). Particulars: for dose response curve of ARB plus (S)-amlodipine malate relative to (S)-amlodipine malate alone: ARB at its ED30 dose; for Potential Dosage Adjustment (%) of (S)-amlodipine malate (adjustment factor): co-administration with the named ARB, relative to ED50 92 μg/kg alone. How it is done:
(§1) (S)-amlodipine malate and seven ARBs (candasartan, eprosartan, irbesartan, losartan, olmesartan, telmisartan and valsartan) were evaluated. The study was conducted in three parts. Phase I evaluated the time-course of the hypotensive actions of all eight agents ([S]-amlodipine and the seven ARBs). In Phase II, the dose-responsive effects of [S]-amlodipine malate and the seven ARBs were evaluated individually. From this phase of the study, ED30 and ED50 doses of each of the seven ARBs were identified, defined as the dose that produced 30 or 50 percent of the hypotensive effect produced by a rapid i.v. injection (30 μg/kg) of sodium nitroprusside (NTP), a short-acting vasodilator. In Phase III, the dose response to [S]-amlodipine was evaluated in the presence and absence of the ED30 and ED50 dose of each of the seven ARBs, with the objective of comparing the extent to which each ARB, at its ED30 or ED50, shifted the dose-response curve of [S]-amlodipine to the left and thus, lowering the apparent ED50 of the calcium channel blocker.
(§2) Animals were anesthetized with thiobutabarbital sodium (Inactin®, 150 mg/kg, delivered i.p.), tracheotomized and placed on a thermostatically controlled heating pad (37-38° C.). The jugular vein and the carotid artery were cannulated with PE-50 tubing for drug administration and recording of cardiovascular parameters, respectively. Blood pressure was recorded from the carotid artery by means of a pressure transducer and heart rate was derived electronically from the blood pressure signal. The signal output derived electronically from the arterial pressure was analyzed with a digital computer. The software IOX-16 continuously recorded the data every 5 sec during the entire procedure for each rat. Raw arterial pressure (in mmHg) and heart rate (beats per min), as well as changes in these two parameters relative to baseline or pre-drug levels (for doses other than initial dose), both in raw units (mm Hg or beats per min [bpm]) and as percentage change from baseline were captured and analyzed. The animals were allowed to equilibrate for 15-20 min before any treatment.
(§3) Doses are expressed in terms of free active substance. Each treatment was administered in a volume of 1 mL/kg by slow (over 20-30 seconds) i.v. bolus for all test articles, in all three phases.
(§4) The data were reported as mean ±S.E.M. (standard error of the mean) from 3-5 rats per group. Raw arterial pressure (in mmHg) and heart rate (beats per min), as well as changes in these two parameters relative to baseline or pre-drug levels (for doses other than initial dose), both in raw units (mmHg or beats per min [bpm]) and as percentage change from baseline, were captured and analyzed.
(§5) ED30 and ED50 for each drug were defined as the dose causing a decline in arterial pressure corresponding to 30% and to 50%, respectively, of the maximal drop in blood pressure produced by fast bolus i.v. injection (30 μg/kg) of sodium nitroprusside.
Dose-response curves with (S)-amlodipine malate in the absence and presence of each of the seven ARBs at its ED30 are shown in FIGS. 1A and 1B. The data shown in the figures are from experiments in which ED30 doses of each of the ARBs was combined with (S)-amlodipine malate. These were chosen because ED30 doses were obtainable by direct interpolation of dose response curves from Phase II. For several of the ARBs, doses corresponding to ED50 were obtained from extrapolation of their dose response curves.

The test system of assay [2] is rats. Particulars: anesthetized rats, 100 μg/kg i.v. As to the method:
as §1
as §2, with “The animals were allowed to equilibrate for 15-20 min before any treatment.” left out

The subject of assay [3] is rats. The assay is described as follows: Phase II: dose-response of hypotensive effect, ED30/ED50 relative to sodium nitroprusside. How it is done: as §1, §2, §3, §4, §5
In this phase, the hypotensive response to sodium nitroprusside (NTP, 30 μg/kg, i.v. bolus), which was injected once at the end of the equilibration period, was used as a comparator and ED30 and ED50 doses were estimated as the percentage of the maximum NTP effect.

[4] abbreviates: i.v., anesthetized rats, from dose-response curve.

In the case of `CCOC(=O)C1=C(COCCN)NC(C)=C(C(=O)OC)[C@@H]1c1ccccc1Cl.O=C(O)C[C@H](O)C(=O)O` [(S)-amlodipine malate], in the assay with rats [1] (i.v., anesthetized rats, Phase III), the “ED50 of (S)-amlodipine malate in the absence of an ARB” value stood at 0.092 mg/kg. Also, in the assay with rats [2], the “maximum decrease in blood pressure” value is on record as 14-17 mmHg and the “time to maximum hypotensive effect post-injection” value was 35 to 55 min. In addition, in the assay on rats [3] (setting [4]), the “ED30 (dose causing 30% of the maximal drop in blood pressure produced by sodium nitroprusside)” value is 0.056 mg/kg and the “ED50 (dose causing 50% of the maximal drop in blood pressure produced by sodium nitroprusside), estimated” value is 0.11 mg/kg.
As for `CCOc1nc2cccc(C(=O)O)c2n1Cc1ccc(-c2ccccc2-c2nnn[nH]2)cc1` [Candasartan, 2-ethoxy-1-[[2′-(1H-tetrazol-5-yl)[1,1′-biphenyl]-4-yl]methyl]-1H-benzimidazole-7-carboxylic acid], the “dose response curve of ARB plus (S)-amlodipine malate relative to (S)-amlodipine malate alone” value in the assay on rats [1] is listed as “offset”. For the same compound, the “decline in MBP at the next higher dose” value in the assay with rats [3] (300 mg/kg i.v. (so in the source)) is listed as “no further decline”. In addition, the “ED30 (dose causing 30% of the maximal drop in blood pressure produced by sodium nitroprusside)” value in the assay with rats [3] (setting [4]) came to 0.008 mg/kg.
Turning to `CCCCc1ncc(/C=C(\Cc2cccs2)C(=O)O)n1Cc1ccc(C(=O)O)cc1` [Eprosartan, (E)-α-[[2-butyl-1-[(4-carboxyphenyl)methyl]-1H-imidazol-5-yl]methylene]-2-thiophenepropanoic acid], in the assay on rats [1], the “Potential Dosage Adjustment (%) of (S)-amlodipine malate (adjustment factor)” value is 24%.
On the same count and under the same terms, the same measure for `CCCCC1=NC2(CCCC2)C(=O)N1Cc1ccc(-c2ccccc2-c2nnn[nH]2)cc1` [Irbesartan, 2-butyl-3-[[2′-(1H-tetrazol-5-yl)[1,1′-bephenyl]-4-yl]methyl]-1,3-diazaspiro[4,4]non-1-en-4-one]: 23%; for `CCCCc1nc(Cl)c(CO)n1Cc1ccc(-c2ccccc2-c2nnn[nH]2)cc1` [Losartan, 2-butyl-4-chloro-1-[[2′-(1H-tetrazol-5-yl)[1,1′-biphenyl]-4-yl]methyl]-1H-imidazole-5-methanol]: 15%.
As to `CCCc1nc2c(C)cc(-c3nc4ccccc4n3C)cc2n1Cc1ccc(-c2ccccc2C(=O)O)cc1` [Telmisartan, 4′-[(1,4′-dimethyl-2′-propyl[2,6′-bi-1H-benzimidazol]-1′-yl)methyl]-[1,1′-biphenyl]-2-carboxylic acid], the “dose response curve of ARB plus (S)-amlodipine malate relative to (S)-amlodipine malate alone” value in the assay with rats [1] was “offset”.
In the case of `CCCCC(=O)N(Cc1ccc(-c2ccccc2-c2nnn[nH]2)cc1)[C@H](C(=O)O)C(C)C` [Valsartan, N-(1-oxopentyl)-N-[[2′-(1H-tetrazol-5-yl)[1,1′-biphenyl]-4-yl]methyl]-L-valine], in the assay on rats [1], the “dose response curve of ARB plus (S)-amlodipine malate relative to (S)-amlodipine malate alone” value is “greatest leftward shift” and the “Potential Dosage Adjustment (%) of (S)-amlodipine malate (adjustment factor)” value came out at 32%. In addition, the “time to maximum hypotensive effect post-injection” value in the assay with rats [2] is reported as “five”. Also, the “ED30 (dose causing 30% of the maximal drop in blood pressure produced by sodium nitroprusside)” value with rats [3] (setting [4]) is 0.229 mg/kg.

Source of the values: US20050209288A1, “Compositions comprising (S)-amlodipine malate and an angiotensin receptor blocker and methods of their use” (priority 2004, published 2005).
